The MBC is the lowest tested concentration that kills the bacteria rather than only halting them. Usually MIC stands for the lowest concentration that inhibits growth of the organism. Usually CC50 stands for the concentration giving 50% cytotoxicity.

For data set [1], the system named is Pseudomonas aeruginosa. Description: Bactericidal activity against Pseudomonas aeruginosa ATCC 10145 by broth dilution method. The data set is classed as functional. A general note: In broth dilution the organism is exposed to a series of concentrations in liquid medium.
The test system of data set [2] is Pseudomonas aeruginosa. Description: Antibacterial activity against Pseudomonas aeruginosa ATCC 10145 assessed as growth inhibition by broth dilution method. The data set is classed as functional.
Data set [3] relates to Bacillus subtilis. Description: Bactericidal activity against Bacillus subtilis ATCC 11774 by broth dilution method. Format: functional.
The subject of data set [4] is Salmonella typhimurium. In words: Antibacterial activity against Salmonella typhimurium ATCC 51812 assessed as growth inhibition at 1 mg/ml after 24 hrs by agar diffusion method. Format: functional, organism-based. Conditions: Salmonella enterica subsp. enterica serovar Typhimurium. (In general: In agar diffusion tests the substance spreads into inoculated agar from a disc or well.)

The subject of data set [5] is Staphylococcus aureus. In words: Antibacterial activity against Staphylococcus aureus ATCC 25923 assessed as growth inhibition by broth dilution method. The data set is classed as functional.
Data set [6] has as its system Staphylococcus aureus. Description: Bactericidal activity against Staphylococcus aureus ATCC 25923 by broth dilution method. The data set is classed as functional.
The subject of data set [7] is Escherichia coli. Description: Antibacterial activity against Escherichia coli ATCC 10536 assessed as growth inhibition at 1 mg/ml after 24 hrs by agar diffusion method. Format: functional. To be noted: ATCC 10536, 24 h, read-out: DIZ.
For data set [8], the system named is Staphylococcus aureus. In words: Antibacterial activity against Staphylococcus aureus ATCC 25923 assessed as growth inhibition at 1 mg/ml after 24 hrs by agar diffusion method. To be noted: ATCC 25923, 24 h, read-out: DIZ. The data set is classed as functional.
Data set [9] deals with Staphylococcus epidermidis. In words: Antibacterial activity against Staphylococcus epidermidis ATCC 12228 assessed as growth inhibition at 1 mg/ml after 24 hrs by agar diffusion method. Format: functional, organism-based.
Data set [10] can be described thus: Cytotoxicity against african green monkey vero cells by MTT assay. Format: cell-based. To be noted: chlorocebus sabaeus. On the technique in general: Tetrazolium dyes change colour on reduction, which living cells bring about.
The subject of data set [11] is Escherichia coli. In words: Bactericidal activity against Escherichia coli ATCC 10536 by broth dilution method. Format: functional.
Data set [12] can be described thus: Selectivity index, ratio of CC50 for african green monkey vero cells to MIC for Escherichia coli ATCC 10536. The data set is classed as functional.
The subject of data set [13] is Bacillus subtilis. In words: Antibacterial activity against Bacillus subtilis ATCC 11774 assessed as growth inhibition by broth dilution method. Format: functional.
Data set [14] in a line: Selectivity index, ratio of CC50 for african green monkey vero cells to MIC for Bacillus subtilis ATCC 11774. Format: functional.
Data set [15] in a line: Selectivity index, ratio of CC50 for african green monkey vero cells to MIC for Pseudomonas aeruginosa ATCC 10145. Format: functional.
In data set [16] the test system is Staphylococcus aureus. In words: Antibacterial activity against methicillin-resistant Staphylococcus aureus ATCC 43300 assessed as growth inhibition at 1 mg/ml after 24 hrs by agar diffusion method. Format: functional, organism-based.
The test system of data set [17] is Serratia marcescens. In words: Antibacterial activity against Serratia marcescens ATCC 13880 assessed as growth inhibition at 1 mg/ml after 24 hrs by agar diffusion method. Format: functional. Conditions: ATCC 13880, 24 h, read-out: DIZ.
For data set [18], the system named is Escherichia coli. Description: Antibacterial activity against Escherichia coli ATCC 10536 assessed as growth inhibition by broth dilution method. Format: functional.
Data set [19] deals with Bacillus subtilis. In words: Antibacterial activity against Bacillus subtilis ATCC 11774 assessed as growth inhibition at 1 mg/ml after 24 hrs by agar diffusion method. Format: functional. To be noted: ATCC 11774, 24 h, read-out: DIZ.
Data set [20] in a line: Selectivity index, ratio of CC50 for african green monkey vero cells to MIC for Staphylococcus aureus ATCC 25923. Format: functional.
Data set [21] has as its system Pseudomonas aeruginosa. Description: Antibacterial activity against Pseudomonas aeruginosa ATCC 10145 assessed as growth inhibition at 1 mg/ml after 24 hrs by agar diffusion method. Format: functional. To be noted: ATCC 10145, 24 h, read-out: DIZ.
Data set [22] concerns Enterococcus faecalis. Description: Antibacterial activity against Enterococcus faecalis ATCC 14506 assessed as growth inhibition at 1 mg/ml after 24 hrs by agar diffusion method. The data set is classed as functional, organism-based.

In brackets after ≈: the same amount, converted by molar mass. Activity calls are given as the source filed them. The rule behind the calls is not given here.

GENTAMICIN: the MBC in [1] was found to be 0.002 mg/mL. Further, in data set [2], the MIC turned out to be 0.001 mg/mL.

On to `Cc1ccc(C)n1-c1[nH]nc(N2CCCCC2)c1C#N`, for which the MBC in data set [1], in data set [3], in data set [6] and in data set [11] was 8 mg/mL (≈ 29.7 mM) each time. In addition, the “growth inhibition (GI)” value in data set [4], in [9], in data set [16] and in data set [22] was “inactive” each time. In addition, the MIC in data set [5] was 8 mg/mL (≈ 29.7 mM); in [13], 4 mg/mL (≈ 14.9 mM); in data set [2] it was 4 mg/mL (≈ 14.9 mM); in data set [18], 8 mg/mL (≈ 29.7 mM). Further, the zone of inhibition at 1000 µg/mL in data set [7] was 7 mm; in [8], 12 mm; in data set [17], 6 mm; in data set [19], 16 mm; in [21] it was 7 mm. Further, the CC50 in data set [10] is 1.4 mg/mL (≈ 5.2 mM). Further, the “Selectivity Index” value in data set [12] turned out to be 0.18; in [14] it was 0.35; in data set [15] it was 0.35; in [20] it was 0.18.

Take `N#Cc1nnc2c(C#N)c(N3CCCCC3)nn2c1N`: the MBC in [1], in [3], in [6] and in [11] was 16 mg/mL (≈ 59.6 mM) in each case. For the same compound, the “growth inhibition (GI)” value in data set [4], in data set [9], in data set [16] and in [22] was “inactive” each time. The MIC in data set [5], in [13], in [2] and in data set [18] was 16 mg/mL (≈ 59.6 mM) in each case. For the same compound, the zone of inhibition at 1000 µg/mL in data set [7] came to 10 mm; in [8] it was 11 mm; in data set [17], 6 mm; in [19], 11 mm; in data set [21] it was 7 mm. In [10], half-maximal cytotoxicity (CC50) was put at 1.4 mg/mL (≈ 5.22 mM). The “Selectivity Index” value in data set [12], in data set [14], in data set [15] and in data set [20] was 0.09 in each case.

For the compound `CC(=O)c1nnc2c(C#N)c(N3CCCCC3)nn2c1C`, the MBC in data set [3], in data set [6] and in data set [11] was 16 mg/mL (≈ 56.3 mM) each time. For the same compound, the “growth inhibition (GI)” value in [4], in data set [9], in data set [16] and in data set [22] was “inactive” throughout. The MIC in data set [5], in data set [13] and in [18] was 16 mg/mL (≈ 56.3 mM) each time. The zone of inhibition at 1000 µg/mL in data set [7] worked out at 8 mm; in data set [8], 9 mm; in data set [17], 6 mm; in data set [19] it was 10 mm; in data set [21], 6 mm. It took 0.312 mg/mL (≈ 1.1 mM) to reach half-maximal cytotoxicity in data set [10] (CC50). Also, the “Selectivity Index” value in [12], in [14] and in [20] was 0.02 each time.
